For assay [1], the system named is Cerrena unicolor strain no. 139. The assay can be described thus: In vitro antifungal activity, mycelial growth inhibition on PDA medium. Type of assay: cell-based. To be noted: Cerrena unicolor, NO.139; screening at basal 50 µg/mL, PDA medium, mean ± SD of three determinations; read-out: fungal growth inhibition, C. unicolor. The protocol: (§1) The cultures of Botrytis cinerea strain FBc05 and Sclerotinia sclerotiorum strain FSc10 were obtained from the collection of the Division of Plant Pathology and Mycology at the Department of Plant Protection of Wroclaw University of Environmental and Life Sciences (Poland). Cerrena unicolor (Bull.ex.Fr.) Murr, strain no. 139, originated from the culture collection of the Department of Biochemistry, University of Lublin (Poland). The stock cultures were maintained on potato dextrose agar at +4 °C and periodically transferred to a fresh medium.
(§2) Prior to the fungicidal activity assay of hydrazide–hydrazones 1–35, we considered ethanol and DMSO as potential dissolution media for tested compounds. […] Furthermore, a very important aspect of biological testing is the careful selection of organic solvents. These are typically used, e.g., methanol, ethanol, acetone, and DMSO, and may be highly toxic for microorganisms in even very low concentrations, such as 1% (v/v). Ethanol and DMSO with a final concentration between 0.1 and 1.0% (v/v) in a PDA medium were used and applied to evaluate the inhibition growth of B. cinerea, S. sclerotiorum, and C. unicolor (see Supplementary Materials). The following procedure was applied to the microorganism testing. The assays of fungi inhibition growth were performed at a basal concentration of 50 µg/mL for all compounds, and detailed experiments were extended for testing between 0 and 50 µg/mL (0, 6.25, 12.5, 25.0, and 50.0 µg/mL) for selected compounds. The tests were carried out on Petri dishes (diameter 60 mm) with PDA medium containing appropriate compound, co-solvent control, and hydrazide–hydrazone dissolved in co-solvent assay. A piece of mycelium with a 5 mm edge taken from the outer edge of the growing fungi on the PDA plate with co-solvent was transferred to a central part of the PDA plate with the examined compound. The plates thus inoculated were incubated at 22 °C in the dark for a time when the control plate containing only the co-solvent was covered entirely with the tested microorganism. For B. cinerea and S. sclerotiorum, the test took 3 days, and for C. unicolor, it took 7 days. Each assay was performed at least in triplicate. […] Model parameters c and e were estimated using the nonlinear least-squares method. Parameters d and b (with two exceptions) were fixed and assumed to be equal. Based on estimated parameters, the values of IC50 were determined. […] The IC50 values were calculated only in cases when the model predicted a decrease in growth rate by more than 50%.
(§3) In vitro antifungal activity
(§4) Prior to the fungicidal activity assay of hydrazide-hydrazones 1–35, we considered ethanol (EtOH) and DMSO as potential dissolution media for tested compounds.
(§5) EtOH and DMSO with a final concentration between 0.1–1.0% (v/v) in a PDA medium were applied to evaluate the inhibition growth of B. cinerea, S. sclerotiorum, and C. unicolor (see Table S3). The following procedure was applied to the microorganism testing with the hydrazide-hydrazones. The assays of fungi inhibition growth were performed at a basal concentration of 50 µg/mL for all compounds, and detailed experiments were extended for testing selected molecules 18, 19, 27, […]
(§6) Table S2. In vitro antifungal activity for DMSO and ethanol co-solvents.

Assay [2] relates to Sclerotinia sclerotiorum strain FSc10. The description is as above. Type of assay: cell-based. On the procedure:
as §1, §2, §3, §4, §5, §6

The subject of assay [3] is Botrytis cinerea strain FBc05. The description is as above. It counts as cell-based. To be noted: for inhibition of growth at 50 µg/mL / fungal growth inhibition, B. cinerea: screening at basal 50 µg/mL, PDA medium, mean ± SD of three determinations; for inhibition of growth at 50 µg/mL: read-out: fungal growth inhibition, B. cinerea. On the procedure:
as §1, §2, §3, §4, §5, §6

Assay [4] has as its target laccase from Trametes versicolor. To be noted: read-out: Laccase inhibition, Ki; cited from earlier work.
Where [5] appears, read: screening at basal 50 µg/mL, PDA medium, mean ± SD of three determinations.

In brackets after ≈: the same amount, converted by molar mass. Where only a bound is given, the exact number is not on record here.

Broadly, the Ki is a dissociation constant, usually derived from enzyme kinetics or from competition with a known ligand. In the case of `COc1ccc(/C=N/NC(=O)c2ccc(O)cc2)cc1` [compound 11], the inhibition of growth at 50 µg/mL worked out at 11.7 ± 3.5% in assay [1] and 4.4 ± 0.9% in assay [3] (Botrytis cinerea, FBC05). Also, the “fungal growth inhibition, S. sclerotiorum” value in assay [2] (setting [5]) is “n.o”. In assay [4], the Ki is ≥ 2400 µM.
`O=C(N/N=C/c1ccc([N+](=O)[O-])o1)c1ccc(O)cc1` [compound 12, Nifuroxazide, reference compound]: the inhibition of growth at 50 µg/mL was 19.5 ± 2.8% in assay [1] and 3.3 ± 1.2% in assay [3] (Botrytis cinerea, FBC05). Also, the “fungal growth inhibition, S. sclerotiorum” value in assay [2] (setting [5]) was “no activity and n.o”. Moreover, the “fungal growth inhibition, B. cinerea” value in assay [3] was “no activity”.
Consider `O=C(N/N=C/c1cc(Br)ccc1O)c1ccc(O)cc1` [compound 14], for which the inhibition of growth at 50 µg/mL in assay [1] came to 56.8 ± 8.4%. For the same molecule, the “fungal growth inhibition, S. sclerotiorum” value in assay [2] (setting [5]) is “n.o”. Besides, the “fungal growth inhibition, B. cinerea” value in assay [3] is “n.o”. In addition, the Ki in assay [4] is ≥ 1000 µM.
Consider `COc1cccc(O)c1/C=N/NC(=O)c1ccc(O)cc1` [compound 15], for which, in assay [1], the inhibition of growth at 50 µg/mL came out at 43.1 ± 3%. For the same molecule, the “fungal growth inhibition, S. sclerotiorum” value in assay [2] (setting [5]) is given as “n.o”. In addition, the “fungal growth inhibition, B. cinerea” value in assay [3] was “n.o”. In assay [4], the Ki was ≥ 1000 µM.
Consider `COc1cccc(OC)c1/C=N/NC(=O)c1ccc(O)cc1` [compound 16], for which the inhibition of growth at 50 µg/mL in assay [1] is 32.1 ± 3.1%. Besides, the “fungal growth inhibition, S. sclerotiorum” value in assay [2] (setting [5]) is reported as “n.o”. Also, the “fungal growth inhibition, B. cinerea” value in assay [3] is “n.o”. The Ki in assay [4] is ≥ 1000 µM.
Take `COc1ccc(C(=O)N/N=C/c2cccc(-c3ccccc3)c2O)cc1` [compound 20]: the inhibition of growth at 50 µg/mL stood at 35.4 ± 2.4% in assay [1] and 3.3 ± 1.2% in assay [3] (Botrytis cinerea, FBC05). For the same molecule, the “fungal growth inhibition, S. sclerotiorum” value in assay [2] (setting [5]) is “n.o”. In assay [4], the Ki was ≥ 1000 µM.
On to `O=C(N/N=C/c1ccc(O)cc1O)c1ccc(O)cc1` [compound 21], for which the inhibition of growth at 50 µg/mL in assay [1] is 30.1 ± 4.3%. Also, the “fungal growth inhibition, S. sclerotiorum” value in assay [2] (setting [5]) is recorded as “n.o”. In addition, in assay [3], the “fungal growth inhibition, B. cinerea” value is recorded as “n.o”. In assay [4], the Ki is 939 µM.
Consider `Cc1cc(CO)cc(/C=N/NC(=O)c2ccc(O)cc2)c1O` [compound 24], for which the inhibition of growth at 50 µg/mL in assay [1] worked out at 42 ± 2.1%. Further, in assay [2] (setting [5]), the “fungal growth inhibition, S. sclerotiorum” value is reported as “n.o”. In addition, the “fungal growth inhibition, B. cinerea” value in assay [3] was “n.o”. Besides, the Ki in assay [4] was ≥ 1000 µM.
A word on the IC50: it is the concentration at which inhibition is half-maximal. Regarding `Cc1ccc(C(C)C)c(O)c1/C=N/NC(=O)c1ccc(O)cc1` [compound 28], the inhibition of growth at 50 µg/mL was found to be 38.2 ± 2.3% in assay [1]; 91.4 ± 2.2% in assay [2] (Sclerotinia sclerotiorum, FSC10, screening at basal 50 µg/mL, PDA medium, mean ± SD of three determinations, read-out: fungal growth inhibition, S. sclerotiorum); 50.8 ± 2.6% in assay [3] (Botrytis cinerea, FBC05). Further, the IC50 in assay [2] (Sclerotinia sclerotiorum, FSC10, log-logistic model, 0–50 µg/mL range, read-out: IC50 against Sclerotinia sclerotiorum (Ss)) is 9.8 µg/mL (≈ 31.4 µM); in assay [3] (Botrytis cinerea, FBC05, log-logistic model, 0–50 µg/mL range, read-out: IC50 against Botrytis cinerea (Bc)), 52.7 µg/mL (≈ 169 µM). Moreover, in assay [4], the Ki is > 1000 µM.
Consider `COc1cc(O)c(/C=N/NC(=O)c2ccc(O)cc2)c(OC)c1` [compound 29], for which the inhibition of growth at 50 µg/mL is 9.1 ± 1.9% in assay [1] and 8.1 ± 0.6% in assay [3] (Botrytis cinerea, FBC05). Further, the “fungal growth inhibition, S. sclerotiorum” value in assay [2] (setting [5]) is recorded as “n.o”. Also, the Ki in assay [4] was ≥ 1000 µM.
As for `COc1ccc(C(=O)N/N=C/c2cc(C)cc(C(C)(C)C)c2O)cc1` [compound 31], the inhibition of growth at 50 µg/mL in assay [1] worked out at 13.8 ± 3.9%; in assay [3] (Botrytis cinerea, FBC05) it was 2.1 ± 0.9%. Also, the “fungal growth inhibition, S. sclerotiorum” value in assay [2] (setting [5]) is reported as “n.o”. Besides, the Ki in assay [4] is 25.8 µM.
As for `Cc1cc(/C=N/NC(=O)c2ccccc2)c(O)c(C(C)(C)C)c1` [compound 33], the inhibition of growth at 50 µg/mL stood at 36.6 ± 1.2% in assay [1] and 3.9 ± 0.6% in assay [3] (Botrytis cinerea, FBC05). For the same molecule, the “fungal growth inhibition, S. sclerotiorum” value in assay [2] (setting [5]) was “n.o”. In assay [4], the Ki was 82 µM.
`Cc1cc(/C=N/NC(=O)c2cccnc2)c(O)c(C(C)(C)C)c1` [compound 34]: the inhibition of growth at 50 µg/mL stood at 29.6 ± 2.7% in assay [1] and 7.5 ± 0.6% in assay [3] (Botrytis cinerea, FBC05). Also, the “fungal growth inhibition, S. sclerotiorum” value in assay [2] (setting [5]) is “n.o”.

These data come from PMC11124341, “4-Hydroxybenzoic Acid-Based Hydrazide–Hydrazones as Potent Growth Inhibition Agents of Laccase-Producing Phytopathogenic Fungi That Are Useful in the Protection of Oilseed Crops” (Molecules, 2024).
